# Earlier results as cited in patent EP0408384A1, “N,N'-dicarboxymethyl, N,N'-dicarbamoylmethyl diaminoalkane derivatives and their use in pharmaceutical compositions” (BRITISH TECHNOLOGY GROUP LIMITED, priority 1989, dated 1991).
# Tested on: daunorubicin toxicity
# Conditions: acute daunorubicin toxicity; literature report
row,SMILES,protection against the lethal effects of daunorubicin
1,O=C1CN(CCN2CC(=O)N(CN3CCOCC3)C(=O)C2)CC(=O)N1CN1CCOCC1 [bimolane],give protection
2,CC(CN1CC(=O)NC(=O)C1)N1CC(=O)NC(=O)C1 (centres unmarked) [compound having R = CH₃ and R′ = R˝ = H],give protection
